Measured values from patent US20220040316A1, “TRIPLE COMBINATION THERAPIES FOR TARGETING MITOCHONDRIA AND KILLING CANCER STEM CELLS” (LUNELLA BIOTECH, INC., priority 2018, published 2022).
“Also recorded” adds a separate entry of the source.

Legend:
MCF7 cells [1] = experiment: Metabolic flux analysis (Seahorse XFe96, OCR and ECAR); type: cell-based, human
Protocol: Metabolic Flux Analysis: Real-time oxygen consumption rates (OCR) and extracellular acidification rates (ECAR) rates in MCF7 cells were determined using the Seahorse Extracellular Flux (XFe96) analyzer (Seahorse Bioscience, USA). Briefly, 1.5×10^4 cells per well were seeded into XFe96 well cell culture plates, and incubated overnight to allow cell attachment. Then, cells were treated with antibiotics for 72 h. Vehicle-alone control cells were processed in parallel. After 72 hours of incubation, cells were washed in pre-warmed XF assay media (or for OCR measurement, XF assay media supplemented with 10 mM glucose, 1 mM Pyruvate, 2 mM L-glutamine and adjusted at 7.4 pH). Cells were then maintained in 175 μL/well of XF assay media at 37° C., in a non-CO2 incubator for 1 hour. During the incubation time, we loaded 25 μL of 80 mM glucose, 9 μM oligomycin, and 1M 2-deoxyglucose (for ECAR measurement) or 10 μM oligomycin, 9 μM FCCP, 10 μM rotenone, 10 μM antimycin A (for OCR measurement), in XF assay media into the injection ports in the XFe96 sensor cartridge. Measurements were normalized by protein content (Bradford assay). Data sets were analyzed using XFe96 software and GraphPad Prism software, using one-way ANOVA and Student's t-test calculations. All experiments were performed in quintuplicate, three times independently.

U937 cells = U937 cells incubated 15 minutes in media containing 3 μM Vitamin C; cited from earlier work
rat heart = conditions: Vitamin C alone, hypoxia, previous studies; cited from earlier work
[2] = oral administration; cited from earlier work
MCF7 cells [3] = experiment: Mammosphere formation assay (MFE, CSC propagation) in MCF7 cells; type: cell-based, human
Protocol: The data represents mammosphere counts after exposure to a compound, as a percentage of a control. The compounds were tested at concentrations of 1.5 μM, 3 μM, 6 μM, and 12 μM.
Mammosphere Formation Assay: A single cell suspension was prepared using enzymatic (1× Trypsin-EDTA, Sigma Aldrich, #T3924), and manual disaggregation (25 gauge needle). Cells were plated at a density of 500 cells/cm2 in mammosphere medium (DMEM-F12+B27+20 ng/ml EGF+PenStrep) under non-adherent conditions, in culture dishes pre-coated with (2-hydroxyethylmethacrylate) (poly-HEMA, Sigma, #P3932), called “tumor-sphere plates”. Vehicle alone (DMSO) control cells were processed in parallel. Cells were grown for 5 days and maintained in a humidified incubator at 37° C. After 5 days of culture, 3D mammospheres >50 μm were counted using an eye piece (“graticule”), and the percentage of cells plated which formed spheres was calculated and is referred to as percent mammosphere formation (MFE, and was normalized to one (1=100% MSF).

senescent fibroblasts = conditions: azithromycin by itself; cited from earlier work
CSCs = experiment: Inhibition of CSC propagation / CSC inhibition activity (assay not specified); type: cell-based
MCF7 cells [4] = experiment: Cellular retention by green auto-fluorescence; type: cell-based, human; conditions: 10 μM, 72 hours, washed with PBS
Protocol: FIGS. 16A-16C are images comparing the cellular retention of the doxycycline-myristate conjugate, to unconjugated doxycycline. MCF7 cells were cultured in tissue culture media in the presence of either therapeutic agent (i.e., the doxycycline-myristate conjugate or unconjugated doxycycline), at a concentration of 10 μM, for 72 hours. Then, the cells were washed with PBS and any therapeutic agent retained within the cells was visualized by green auto-fluorescence, from the excitation of the tetracycline ring structure. Control cells were incubated with vehicle-alone. […] The original color in the images has been inverted, to […], and the darker regions of FIG. 16B indicate increased cellular retention of the conjugated therapeutic agent.

MCF7 cells [5] = experiment: Cell viability, bulk MCF7 cells; type: cell-based, human; conditions: range of concentrations up to 20 μM
Excerpt: (§1) Embodiments of therapeutic agents conjugated with targeting signals have shown less toxicity in bulk cancer cells and normal fibroblasts compared to unconjugated therapeutic agents. For example, FIGS. 17A and 17B show cell viability data for doxycycline and the doxycycline-myristate conjugate shown as compound [1], for bulk MCF7 cells and bulk BJ cells, respectively. The data represents cell viability expressed as a percentage of a control. […] Similar behavior has been seen in other therapeutic agents conjugated with targeting signals.

BJ cells = experiment: Cell viability, bulk BJ cells; type: cell-based; conditions: range of concentrations up to 20 μM
Excerpt: as §1

[6] = test system: breast cancer tumor samples; experiment: ABC trial pilot study: CSC markers in tumor samples after oral doxycycline; type: in vivo, human
Protocol: Doxycycline impacts cancer growth through inhibition of CSC propagation with an IC-50 between 2-to-10 μM. The Antibiotic for Breast Cancer (ABC) trial was conducted at The University of Pisa Hospital. The ABC trial aimed to assess the anti-proliferative and anti-CSC mechanistic actions of doxycycline in early breast cancer patients. […] A pilot study of the ABC trial confirmed that doxycycline treatment successfully decreases the expression of CSC markers in breast cancer tumor samples. […] This represents a 90% positive response rate.

[7] = MCF7 monolayers pre-treated 3-days, doxycycline 1 μM, azithromycin 1 μM, Vitamin C 250 μM as applicable, vs control
[8] = breast cancer patients treated with doxycycline

O=C1O[C@H]([C@@H](O)CO)C(O)=C1O [Vit C, Ascorbic Acid]
ATP production / ATP levels (MCF7 cells [1]; [7]): significantly increased | basal respiration (MCF7 cells [1]; [7]): significantly increased | glycolysis (ECAR) (MCF7 cells [1]; [7]): significantly increased | glycolytic reserve (MCF7 cells [1]; [7]): significantly increased | glycolytic reserve capacity (MCF7 cells [1]; [7]): decreasing | maximal respiration (MCF7 cells [1]; [7]): significantly increased | oxidative mitochondrial metabolism (OCR) (MCF7 cells [1]; [7]): significantly increased; also recorded: increases | increase of mitochondrial ATP production (MCF7 cells [1]; Vitamin C alone, MCF7 cells): up to 2 fold | Vitamin C level reached in mitochondria (U937 cells): 5 mM | increase of mitochondrial ATP production (rat heart): up to 1.5 fold | peak Vitamin C concentration in blood/serum/plasma [2]: about 250

CC[C@H]1OC(=O)[C@H](C)[C@@H](O[C@H]2C[C@@](C)(OC)[C@@H](O)[C@H](C)O2)[C@H](C)[C@@H](O[C@@H]2O[C@H](C)C[C@H](N(C)C)[C@H]2O)[C@](C)(O)C[C@@H](C)CN(C)[C@H](C)[C@@H](O)[C@]1(C)O [azithromycin]
inhibition of mammosphere formation (MCF7 cells [3]; drug alone at low concentrations (0.1 μM and 1 μM)): little or no effect | efficiency of senolytic activity (removal of senescent fibroblasts) (senescent fibroblasts): ~97%

CCCCCCCCCCCCCC(=O)N(C)[C@H]1C[C@@H](C)O[C@@H](O[C@@H]2[C@@H](C)[C@H](O[C@H]3C[C@@](C)(OC)[C@@H](O)[C@H](C)O3)[C@@H](C)C(=O)O[C@H](CC)[C@@](C)(O)[C@H](O)[C@@H](C)N(C)C[C@H](C)C[C@@]2(C)O)[C@@H]1O [compound [15]]
potency and selectivity for CSCs compared to azithromycin alone (CSCs): improved potency and selectivity

CCCCCCCCCCCCCC(=O)Nc1ccc2c(c1O)C(=O)C1=C(O)[C@]3(O)C(=O)C(C(N)=O)=C(O)[C@@H](N(C)C)C3[C@@H](O)C1[C@H]2C (stereo partly drawn) [doxycycline-myristate conjugate, (4S,5S,6R,12aS)-4-(dimethylamino)-3,5,10,12,12a-pentahydroxy-6-methyl-1,11-dioxo-9-(tetradecanoylamino)-4a,5,5a,6-tetrahydro-4H-tetracene-2-carboxamide]
potency in mammosphere assay compared with unconjugated doxycycline (MCF7 cells [3]; MCF7, 1.5 μM, 3 μM, 6 μM and 12 μM, mammosphere counts as percentage of control): more potent | times more potent than doxycycline for inhibiting CSC propagation (MCF7 cells [3]; from IC50 values, MCF7 mammosphere assay): over 5 times | CSC inhibition activity compared with the unconjugated antibiotic (CSCs; fatty acid conjugates (myristate where stated)): better CSC inhibitory properties | cellular retention compared to doxycycline alone (MCF7 cells [4]): significantly improved cellular retention | toxicity (cell viability as percentage of control) compared with doxycycline (MCF7 cells [5]): less toxic | toxicity (cell viability as percentage of control) compared with doxycycline (BJ cells): less toxic

C[C@H]1c2cccc(O)c2C(=O)C2=C(O)[C@]3(O)C(=O)C(C(N)=O)=C(O)[C@@H](N(C)C)[C@@H]3[C@@H](O)[C@@H]21 [doxycycline]
positive response rate (CD44) [6, 8]: 90% | rise in CD44, one patient [6, 8]: 15% | decrease in the stemness marker CD44, post-doxycycline vs pre-doxycycline tumor samples ([6]; early breast cancer patients, short-term pre-operative oral doxycycline): 40%
